{
  "source": "patent US10555522B2",
  "about": "“Long term methods of improving disease tolerance in plants” (priority 2016, dated 2020)",
  "key": {"[1]": {"tested_on": "Beet Curly Top Virus (BCTV)", "assay": "Evaluation of Beet Curly Top Virus on tomatoes (field trial, seedlings treated before transplantation)", "format": "in vivo", "details": "tomato var Heinz 8504; seedlings sprayed with 4 gm ai/ha two days before transplant; rated approximately 8 weeks later; P = 0.065", "method": "In the instant example, symptoms of infection with Beet Curly Top Virus (BCTV) on tomatoes were evaluated. Plants were either treated with a composition comprising 1-MCP or left untreated.\nTomato seedlings (var Heinz 8504) with 4 leaves (approximately 4 inches tall) in seedling trays were either i) sprayed with a treatment of 1-MCP (4 gm ai/ha) or ii) left untreated. Contacting the plants was achieved using a pressurized backpack spraying system containing 1-MCP and water. Two days later, the tomato seedlings were transplanted into the open field near Five Points, Calif. following normal commercial tomato production practices.\nThroughout the growing season, normal field production practices were performed, including fertilization, watering, and pest control (e.g., insecticide, fungicide, and herbicide) applications uniformly to the entire trial area. Approximately eight (8) weeks later, when the tomatoes had grown to approximately 2 feet tall, an infestation of Beet Curly Top Virus (BCTV) was noted. Observations were taken on percentage of plants infected with BCTV in treated and untreated plots."}, "[2]": {"tested_on": "Tomato Yellow Leaf Curl Virus (TYLCV)", "assay": "Evaluation of Tomato Yellow Leaf Curl Virus on tomatoes (field trial)", "format": "in vivo, Tomato Yellow Leaf Curl Virus (Begomovirus Geminiviridae)", "details": "tomato var Florida 47; seedlings treated with 50 ppm ai by watering can three days before transplant; rated approximately 9 weeks later; P = 0.081", "method": "In the instant example, symptoms of infection with Tomato Yellow Leaf Curl Virus (TYLCV) on tomatoes were evaluated. Plants were either treated with a composition comprising 1-MCP or left untreated.\n(§1) Tomato seedlings (var Florida 47) with approximately 4 leaves (approximately 4 inches tall) in seedling trays were either i) sprayed with 1-MCP (50 ppm ai) or ii) left untreated. Contacting the plants was achieved using a watering can containing 1-MCP and water. Three days later, the seedlings were transplanted into the open field near Myakka City, Fla. following normal commercial tomato production practices.\n(§2) Throughout the growing season, normal field production practices were performed, including fertilization, watering, and pest control (e.g., insecticide, fungicide, and herbicide) applications uniformly to the entire trial area. Approximately 9 weeks later, when the tomatoes had grown to approximately 3 feet tall, an infestation of Tomato Yellow Leaf Curl Virus was observed. In each plot of plants that were treated with 1-MCP, and the corresponding plot of plants that were untreated, counts were made of the number of plants showing symptoms of infection by TYLCV out of the total of 54 plants per plot."}, "[3]": {"tested_on": "Target Spot (Corynespora cassiicola)", "assay": "Evaluation of Target Spot infection on tomatoes (field trial)", "format": "in vivo", "details": "tomato var HM 1823; seedlings treated with 50 ppm ai by watering can three days before transplant; rated approximately 9 weeks later; P = 0.003", "method": "In the instant example, symptoms of Target Spot […] infection (Corynespora cassiicola) on tomatoes were evaluated. Plants were either treated with a composition comprising 1-MCP or left untreated.\nas §1, with “HM 1823)” for “Florida 47)”\nas §2, with “Target Spot” for “Tomato Yellow Leaf Curl Virus”, “Target Spot” for “TYLCV”"}, "[4]": {"tested_on": "Bacterial Spot (Xanthomonas euvesicatoria and Xanthomonas perforans, Xanthomonas vesicatoria, and Xanthomonas gardneri)", "assay": "Evaluation of Bacterial Spot on tomatoes (field trial)", "format": "in vivo", "details": "tomato var Charger; seedlings sprayed with 1-40 g ai/ha two days before transplant; rated approximately 3 weeks later; p = 0.04", "method": "In the instant example, symptoms of Bacterial Spot bacterial infection (Xanthomonas euvesicatoria and Xanthomonas perforans=[Xanthomonas axonopodis (syn. campestris) pv. vesicatoria], Xanthomonas vesicatoria, and Xanthomonas gardneri) on tomatoes were evaluated. Plants were either treated with a composition comprising 1-MCP or left untreated.\n(§3) Tomato Seedlings (var Charger) with approximately 4 leaves (approximately 4-5 inches tall) in seedling trays were either i) sprayed with 1-MCP (1-40 g ai/ha) or ii) left untreated. Contacting the plants was achieved using pressurized backpack sprayer. Two days later, the seedlings were transplanted into the open field near Thonotosassa, Fla. following normal commercial tomato production practices.\nas §2, with “3” for “9”, “1½” for “3”, “tall” for “tall,”, “Bacterial Spot” for “Tomato Yellow Leaf Curl Virus”, “disease severity assessments” for “counts”, “made.” for “made of the number of plants showing symptoms of infection by TYLCV out of the total of 54 plants per plot.”"}, "[5]": {"tested_on": "Early Blight (Alternaria tomatophila)", "assay": "Evaluation of Early Blight on tomatoes (field trial)", "format": "in vivo", "method": "In the instant example, symptoms of fungal infection with Early Blight (Alternaria tomatophila) on tomatoes were evaluated. Plants were either treated with a composition comprising 1-MCP or left untreated.\nas §3, with “seedlings” for “Seedlings”, “(1-10” for “(1-40”\n(§4) Throughout the growing season, normal field production practices were performed, including fertilization, watering, and pest control (e.g., insecticide, fungicide, and herbicide) applications uniformly to the entire trial area. Beginning approximately 3 weeks later, and continuing approximately 7 weeks later and approximately 11 weeks later, the percent disease severity ratings were made in each plot of plants that were treated with 1-MCP and the corresponding plot of plants that were untreated."}, "Root Rot (Pythium sp.)": {"tested_on": "Root Rot (Pythium sp.)", "assay": "Evaluation of Root Rot on peppers (field trial)", "format": "in vivo", "method": "In the instant example, symptoms of fungal infection with Root Rot (Pythium sp.) on peppers were evaluated. Plants were either treated with a composition comprising 1-MCP or left untreated.\nPepper seedlings with approximately 3 leaves (approximately 4-5 inches tall) in seedling trays were either i) sprayed with 1-MCP (1-10 g ai/ha) or ii) left untreated. Contacting the plants was achieved using a watering can containing a 50 ppm solution of 1-MCP. Three days later, the seedlings were transplanted into the open field near Clinton, N.C. following normal commercial pepper production practices.\nThroughout the growing season, normal field production practices were performed, including fertilization, watering, and pest control (e.g., insecticide, fungicide, and herbicide) applications uniformly to the entire trial area."}, "[6]": {"tested_on": "Downy Mildew (Pseudoperonospora cubensis)", "assay": "Evaluation of Downy Mildew on cucumbers (field trial)", "format": "in vivo", "method": "In the instant example, symptoms of fungal infection with Downy Mildew (Pseudoperonospora cubensis) on cucumbers were evaluated. Plants were either treated with a composition comprising 1-MCP or left untreated.\nas §3, with “Cucumber seedlings” for “Tomato Seedlings (var Charger)”, “3” for “4”, “3” for “4-5”, “(40” for “(1-40”, “Futian Village, Wangsi Township, Dayi County, Sichuan, China,” for “Thonotosassa, Fla.”, “commercial” for “commercial tomato”\nas §4, with “Approximately 5-6” for “Beginning approximately 3 weeks later, and continuing approximately 7 weeks later and approximately 11”"}},
  "data": [
    {"smiles": "CC1=CC1", "note": "[1-MCP, 1-methylcyclopropene]", "values": [
      {"measurement": "Percentage of BCTV Infested Plants", "setting": "[1]", "result": 4, "unit": "%"},
      {"measurement": "Mean (plants showing symptoms of infection by TYLCV out of 54 plants per plot)", "setting": "[2]", "result": 11, "unit": "%"},
      {"measurement": "Percentage of Infected Plants (Target Spot)", "setting": "[3]", "result": 19, "unit": "%"},
      {"measurement": "Bacterial Spot disease severity assessment", "setting": "[4]", "result": 4, "unit": "%"},
      {"measurement": "reduction of average percent disease severity ratings for Early Blight versus untreated", "setting": "[5]; across the three rating dates (approximately 3, 7, 11 weeks)", "result": "approximately 30%"},
      {"measurement": "average percent disease severity rating for Early Blight", "setting": "[5]; tomato var Charger, seedlings sprayed with 1-10 g ai/ha two days before transplant, average across approximately 3, 7 and 11 weeks later, p = 0.09", "result": 27.6, "unit": "%"},
      {"measurement": "mortality and stunting of plants caused by Pythium", "setting": "Root Rot (Pythium sp.); pepper seedlings treated with 1-10 g ai/ha (watering can, 50 ppm solution) three days before transplant, versus untreated", "result": "clearly reduced the mortality and stunting of plants"},
      {"measurement": "plant appearance and Pythium pressure compared to untreated controls", "setting": "Root Rot (Pythium sp.); pepper, two weeks after transplantation", "result": "slightly larger, darker green, and not as affected by Pythium pressure"},
      {"measurement": "percent disease (Downy Mildew) severity rating", "setting": "[6]; cucumber seedlings sprayed with 40 g ai/ha two days before transplant, rated approximately 5-6 weeks later, p = 0.08", "result": 18, "unit": "%"},
      {"measurement": "reduction of percent disease (Downy Mildew) severity ratings versus untreated", "setting": "[6]; cucumber, approximately 5-6 weeks later", "result": "approximately 47%"}
    ]}
  ]
}
